ChEMBL document CHEMBL1806384, “Identification of benzofuran-4,5-diones as novel and selective non-hydroxamic acid, non-peptidomimetic based inhibitors of human peptide deformylase” (Bioorg Med Chem Lett, 2011)
pIC50: −log10 of the molar value. Converted amounts (≈) assume the structure as drawn.

Experiments:
[1] = tested on: Staphylococcus aureus; test: Antibacterial activity against Staphylococcus aureus ATCC 29213; format: functional
[2] = tested on: Bacteroides fragilis; test: Antibacterial activity against Bacteroides fragilis ATCC 25285; format: functional
[3] = tested on: Candida albicans; test: Antifungal activity against Candida albicans ATCC 90028; format: functional
[4] = tested on: Enterococcus faecium; test: Antibacterial activity against Enterococcus faecium ATCC 19434; format: functional
[5] = tested on: Streptococcus pyogenes; test: Antibacterial activity against Streptococcus pyogenes ATCC 19615; format: functional
[6] = tested on: Citrobacter freundii; test: Antibacterial activity against Citrobacter freundii ATCC 8090; format: functional
[7] = tested on: Cutibacterium acnes; test: Antibacterial activity against Propionibacterium acnes ATCC 11827; format: functional
[8] = tested on: Haemophilus influenzae; test: Antibacterial activity against Haemophilus influenzae ATCC 49766; format: functional
[9] = tested on: Staphylococcus epidermidis; test: Antibacterial activity against Staphylococcus epidermidis ATCC 12228; format: functional
[10] = tested on: Enterococcus faecalis; test: Antibacterial activity against Enterococcus faecalis ATCC 29212; format: functional
[11] = tested on: Escherichia coli; test: Antibacterial activity against Escherichia coli ATCC 25922; format: functional
[12] = tested on: Streptococcus pneumoniae; test: Antibacterial activity against Streptococcus pneumoniae ATCC 6301; format: functional
[13] = tested on: Enterobacter cloacae; test: Antibacterial activity against Enterobacter cloacae ATCC 13047; format: functional
[14] = target: T1, Aminopeptidase N (Sus scrofa) (UniProt P15145); test: Inhibition of porcine kidney microsomal aminopeptidase N at 100 uM after 1 hr by fluorescence polarization based competition assay
T1 sequence (whole entry): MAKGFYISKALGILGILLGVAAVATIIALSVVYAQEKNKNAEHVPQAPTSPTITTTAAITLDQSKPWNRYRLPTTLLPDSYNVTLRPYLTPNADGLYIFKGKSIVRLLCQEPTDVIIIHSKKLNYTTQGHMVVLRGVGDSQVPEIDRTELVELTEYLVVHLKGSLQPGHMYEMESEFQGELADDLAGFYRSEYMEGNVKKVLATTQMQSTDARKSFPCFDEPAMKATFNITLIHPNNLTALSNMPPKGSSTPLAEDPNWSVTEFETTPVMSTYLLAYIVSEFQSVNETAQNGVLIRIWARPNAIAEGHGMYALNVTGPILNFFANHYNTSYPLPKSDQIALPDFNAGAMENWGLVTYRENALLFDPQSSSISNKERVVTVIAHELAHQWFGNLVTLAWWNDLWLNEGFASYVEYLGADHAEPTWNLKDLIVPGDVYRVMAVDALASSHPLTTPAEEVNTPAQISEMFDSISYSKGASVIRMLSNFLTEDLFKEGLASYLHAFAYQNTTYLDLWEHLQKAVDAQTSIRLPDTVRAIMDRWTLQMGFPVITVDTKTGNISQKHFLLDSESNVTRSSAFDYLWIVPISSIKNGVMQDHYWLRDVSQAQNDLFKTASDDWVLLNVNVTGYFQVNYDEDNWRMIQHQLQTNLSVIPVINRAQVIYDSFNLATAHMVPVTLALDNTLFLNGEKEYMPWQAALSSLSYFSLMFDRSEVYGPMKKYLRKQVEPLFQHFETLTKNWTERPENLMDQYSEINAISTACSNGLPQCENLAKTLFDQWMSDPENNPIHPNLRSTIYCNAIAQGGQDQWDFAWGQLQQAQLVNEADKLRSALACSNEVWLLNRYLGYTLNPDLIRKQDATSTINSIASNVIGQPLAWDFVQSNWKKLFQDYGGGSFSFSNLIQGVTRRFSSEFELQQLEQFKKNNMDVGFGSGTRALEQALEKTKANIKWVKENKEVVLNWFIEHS

[15] = target: T2, Peptide deformylase, mitochondrial (Homo sapiens) (UniProt Q9HBH1); test: Inhibition of human peptide deformylase at 10 uM after 1 hr by fluorescence polarization based competition assay
T2 sequence (whole entry): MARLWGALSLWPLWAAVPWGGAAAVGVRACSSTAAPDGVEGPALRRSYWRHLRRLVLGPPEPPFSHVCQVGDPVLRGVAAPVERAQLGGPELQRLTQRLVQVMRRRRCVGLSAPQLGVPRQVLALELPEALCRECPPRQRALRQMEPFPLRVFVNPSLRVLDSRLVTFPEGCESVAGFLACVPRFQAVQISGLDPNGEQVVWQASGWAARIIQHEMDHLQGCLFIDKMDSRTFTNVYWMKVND

[16] = tested on: Y79; test: Cytotoxicity against human Y79 cells; format: functional, cell-based
[17] = target: T3, Interstitial collagenase (Homo sapiens) (UniProt P03956); test: Inhibition of human recombinant MMP1 at 100 uM after 1 hr by fluorescence polarization based competition assay
T3 sequence (whole entry): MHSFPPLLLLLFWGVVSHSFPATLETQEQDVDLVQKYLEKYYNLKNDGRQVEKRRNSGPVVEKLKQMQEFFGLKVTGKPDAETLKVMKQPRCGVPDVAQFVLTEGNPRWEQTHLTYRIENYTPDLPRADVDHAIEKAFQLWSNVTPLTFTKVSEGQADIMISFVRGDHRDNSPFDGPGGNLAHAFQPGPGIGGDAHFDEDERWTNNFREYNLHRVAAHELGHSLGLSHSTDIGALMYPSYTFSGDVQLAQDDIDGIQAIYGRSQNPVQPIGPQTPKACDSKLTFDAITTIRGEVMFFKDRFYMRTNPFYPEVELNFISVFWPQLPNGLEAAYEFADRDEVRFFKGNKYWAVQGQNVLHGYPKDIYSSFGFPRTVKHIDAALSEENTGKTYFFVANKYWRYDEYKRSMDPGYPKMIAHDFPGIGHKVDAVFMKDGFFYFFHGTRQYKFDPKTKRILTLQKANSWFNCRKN

[18] = target: T4, Peptide deformylase (Escherichia coli, UniProt Q9JN24); test: Inhibition of Escherichia coli peptide deformylase after 1 hr by fluorescence polarization based competition assay
T4 sequence (Q9JN24 whole entry): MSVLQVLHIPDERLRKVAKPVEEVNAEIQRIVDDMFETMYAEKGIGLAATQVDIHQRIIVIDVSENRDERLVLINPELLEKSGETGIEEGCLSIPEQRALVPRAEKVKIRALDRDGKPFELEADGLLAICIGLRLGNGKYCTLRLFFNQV

[19] = tested on: MOLT-3; test: Cytotoxicity against human MOLT3 cells; format: functional, cell-based
[20] = tested on: Jurkat; test: Cytotoxicity against human Jurkat cells; format: functional, cell-based
[21] = target: T5, Peptide deformylase, mitochondrial (Homo sapiens, UniProt Q9HBH1); test: Inhibition of human peptide deformylase after 1 hr by fluorescence polarization based competition assay
T5 sequence (Q9HBH1 whole entry): T2 sequence (whole entry)

[22] = target: T6, Peptide deformylase (Escherichia coli) (UniProt Q9JN24); test: Inhibition of Escherichia coli peptide deformylase at 100 uM after 1 hr by fluorescence polarization based competition assay
T6 sequence (whole entry): T4 sequence (Q9JN24 whole entry)

[23] = tested on: HL-60; test: Cytotoxicity against human HL60 cells; format: functional, cell-based
[24] = tested on: HEK293; test: Cytotoxicity against human HEK293 cells; format: cell-based
[25] = Cytotoxicity against human ALL3 cells; format: functional, cell-based
[26] = target: T2, Peptide deformylase, mitochondrial (Homo sapiens); test: Inhibition of human peptide deformylase at 100 uM after 1 hr by fluorescence polarization based competition assay
[27] = tested on: HL-60; test: Cytotoxicity against human vincristine-resistant HL60 cells; format: functional, cell-based
[28] = Cytotoxicity against human Meso47 cells; format: functional, cell-based
[29] = Cytotoxicity against human CWR22 cells; format: functional, cell-based
[30] = tested on: HL-60; test: Antitumor activity against human HL60 cells xenografted in athymic nude mouse assessed as tumor growth delay at 15 mg/kg, ip administered 3 times a week for 2 weeks; format: functional; details: route intraperitoneal

| Compound | MIC [1] | MIC [2] | MIC [3] | MIC [4] | MIC [5] | MIC [6] | MIC [7] | MIC [8] | MIC [9] | MIC [10] | inhibition [14] | inhibition [15] | pIC50 [16] | inhibition [17] | pIC50 [18] | pIC50 [19] | inhibition [22] | pIC50 [24] | pIC50 [25] | inhibition [26] | also measured |
| --- | --- | --- | --- | --- | --- | --- | --- | --- | --- | --- | --- | --- | --- | --- | --- | --- | --- | --- | --- | --- | --- |
| O=C(O)c1cn(C2CC2)c2cc(N3CCNCC3)c(F)cc2c1=O [CIPROFLOXACIN] | 0.5 µg/mL (≈ 1.51 µM) | 4 µg/mL (≈ 12.1 µM) | > 64 µg/mL | 4 µg/mL (≈ 12.1 µM) | 0.25 µg/mL (≈ 0.754 µM) | ≤ 0.12 µg/mL | 0.25 µg/mL (≈ 0.754 µM) | ≤ 0.12 µg/mL | ≤ 0.12 µg/mL | 0.25 µg/mL (≈ 0.754 µM) | – | – | – | – | – | – | – | – | – | – | MIC [11]: ≤ 0.12 µg/mL |
| C[C@@H](O)[C@H]1C(=O)N2C(C(=O)O)=C(SCCNC=N)C[C@H]12 [IMIPENEM ANHYDROUS] | ≤ 0.12 µg/mL | ≤ 0.12 µg/mL | > 64 µg/mL | 2 µg/mL (≈ 6.68 µM) | ≤ 0.12 µg/mL | 1 µg/mL (≈ 3.34 µM) | ≤ 0.12 µg/mL | 1 µg/mL (≈ 3.34 µM) | ≤ 0.12 µg/mL | 0.5 µg/mL (≈ 1.67 µM) | – | – | – | – | – | – | – | – | – | – | MIC [12]: ≤ 0.12 µg/mL; MIC [13]: 1 µg/mL (≈ 3.34 µM); MIC [11]: ≤ 0.12 µg/mL |
| COc1ccc(C(=O)c2coc3c2C(=O)C(=O)C(Br)=C3)cc1 | – | – | – | – | – | – | – | – | – | – | 22% | 90% | 4.00 | 26% | < 4.00 | 5.40 | 5% | 4.27 | 4.32 | 100% | pIC50 [20]: 4.70; pIC50 [21]: 4.49; pIC50 [23]: 4.32 |
| COc1ccc(C(=O)c2coc3c2C(=O)C(=O)C(Cl)=C3Cl)cc1 | > 64 µg/mL | > 64 µg/mL | > 64 µg/mL | > 64 µg/mL | > 64 µg/mL | > 64 µg/mL | > 64 µg/mL | > 64 µg/mL | > 64 µg/mL | > 64 µg/mL | 50% | – | 4.18 | 0% | < 4.00 | 5.39 | 1% | 4.52 | 4.57 | 88% | MIC [12]: 16 µg/mL (≈ 45.6 µM); pIC50 [27]: 4.37; MIC [13]: > 64 µg/mL; pIC50 [28]: 4.00; pIC50 [20]: 5.21; pIC50 [21]: 4.82; pIC50 [23]: 5.00; MIC [11]: > 64 µg/mL; pIC50 [29]: 4.30 |
| COc1ccc(C(=O)c2coc3c2C(=O)C(=O)C(Br)=C3Br)cc1OC | – | – | – | – | – | – | – | – | – | – | 96% | – | 4.00 | 46% | < 4.00 | 4.60 | 53% | 4.00 | 4.44 | 100% | pIC50 [27]: 4.19; pIC50 [28]: 4.00; pIC50 [20]: 4.55; pIC50 [21]: 5.00; pIC50 [23]: 4.38; pIC50 [29]: 4.00 |
| CC(=O)C(C(C)=O)C1=C(Cl)C(=O)C(=O)c2c(C(=O)c3ccc(C)cc3)coc21 | – | – | – | – | – | – | – | – | – | – | – | 75% | – | – | – | – | – | – | – | – | – |
| COc1cc(C(=O)c2coc3c2C(=O)C(=O)C(Br)=C3Br)cc(OC)c1OC | – | – | – | – | – | – | – | – | – | – | 50% | – | 4.48 | 38% | < 4.00 | 5.54 | 32% | 4.80 | 5.00 | 100% | pIC50 [27]: 4.92; pIC50 [28]: 4.43; pIC50 [20]: 5.55; pIC50 [29]: 4.68; Activity [30]: 40% |
| Cc1ccc(C(=O)c2coc3c2C(=O)C(=O)C(Br)=C3)cc1 | – | – | – | – | – | – | – | – | – | – | – | 81% | – | – | – | – | – | – | – | – | – |
| O=C1C(=O)c2c(C(=O)c3ccccc3)coc2C(Cl)=C1Cl | > 64 µg/mL | > 64 µg/mL | > 64 µg/mL | > 64 µg/mL | > 64 µg/mL | > 64 µg/mL | > 64 µg/mL | > 64 µg/mL | > 64 µg/mL | > 64 µg/mL | 101% | 90% | 4.00 | 41% | < 4.00 | 4.51 | 65% | 4.00 | 4.16 | 100% | MIC [12]: 4 µg/mL (≈ 12.5 µM); pIC50 [27]: 4.00; MIC [13]: > 64 µg/mL; pIC50 [28]: 4.00; MIC [11]: > 64 µg/mL; pIC50 [29]: 4.14 |
| O=C1C(=O)c2c(C(=O)c3ccccc3)coc2C=C1Br | – | – | – | – | – | – | – | – | – | – | – | 97% | – | – | – | – | – | – | – | – | – |
